# Reference: patent publication US8415469B2, “Compounds and methods for kinase modulation, and indications therefor” (Plexxikon Inc., priority 2005, dated 2013)
# Tests used:
# Assay type in all cases: biochemical
# FGFR1 = biological target: T1, FGFR1 (Homo sapiens, UniProt P11362, C488A/C584S); assay: AlphaScreen kinase assay, FGFR1; details: read-out: IC50, activity toward kinase FGFR
# T1 construct: P1351.pET N6 BI-PTP FGFR A458-E765-X C488A, C584S; made in house; host or cells: E. coli (PTP1B co-expressed)
# T1 sequence (P11362 458-765 C488A/C584S): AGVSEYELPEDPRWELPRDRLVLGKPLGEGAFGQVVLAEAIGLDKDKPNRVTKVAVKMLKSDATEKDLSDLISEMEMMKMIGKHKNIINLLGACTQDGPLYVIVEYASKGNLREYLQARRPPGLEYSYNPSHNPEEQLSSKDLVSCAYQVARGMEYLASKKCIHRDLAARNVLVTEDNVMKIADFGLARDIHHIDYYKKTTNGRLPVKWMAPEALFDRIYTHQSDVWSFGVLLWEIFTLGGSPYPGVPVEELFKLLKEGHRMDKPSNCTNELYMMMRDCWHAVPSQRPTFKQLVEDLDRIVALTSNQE
# Flt1 = biological target: T2, Flt1 (Homo sapiens, UniProt P17948); assay: AlphaScreen kinase assay, Flt1; details: read-out: IC50, activity toward kinase Flt1
# T2 construct: P1826.pETN6 BI-PTP FLT1 M799-D1165-X WT; His6 (N); made in house; host or cells: E. coli (PTP1B co-expressed)
# T2 sequence (P17948 with tags, fused parts or gaps): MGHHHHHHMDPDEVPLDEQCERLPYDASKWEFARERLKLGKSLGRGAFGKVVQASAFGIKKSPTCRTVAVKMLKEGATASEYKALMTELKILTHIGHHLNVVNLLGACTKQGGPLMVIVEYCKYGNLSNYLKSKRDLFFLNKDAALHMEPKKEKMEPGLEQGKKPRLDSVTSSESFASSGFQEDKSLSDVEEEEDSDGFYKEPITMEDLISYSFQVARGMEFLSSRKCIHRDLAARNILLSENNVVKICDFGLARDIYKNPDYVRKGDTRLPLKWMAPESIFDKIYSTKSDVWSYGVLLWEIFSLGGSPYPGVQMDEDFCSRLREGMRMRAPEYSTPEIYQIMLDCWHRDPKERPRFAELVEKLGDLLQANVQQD
# Jnk2 = biological target: T3, Jnk2 (Homo sapiens, UniProt P45984); assay: AlphaScreen kinase assay, Jnk2; details: read-out: IC50, activity toward kinase Jnk2
# T3 construct: purchased Roche Protein Expression Group (Indianapolis, IN)
# T3 sequence (P45984 whole entry): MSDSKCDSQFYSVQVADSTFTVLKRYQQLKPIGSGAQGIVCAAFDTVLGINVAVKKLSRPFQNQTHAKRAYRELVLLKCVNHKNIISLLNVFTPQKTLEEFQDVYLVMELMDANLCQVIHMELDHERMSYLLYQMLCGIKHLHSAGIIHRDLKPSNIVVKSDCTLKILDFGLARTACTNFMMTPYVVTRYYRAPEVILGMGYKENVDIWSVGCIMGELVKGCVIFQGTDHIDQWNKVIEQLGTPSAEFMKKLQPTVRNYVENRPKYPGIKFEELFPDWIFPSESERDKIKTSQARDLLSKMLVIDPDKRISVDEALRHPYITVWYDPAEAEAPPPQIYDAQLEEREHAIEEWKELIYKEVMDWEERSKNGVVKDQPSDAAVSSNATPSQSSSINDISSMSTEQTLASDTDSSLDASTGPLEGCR
# Text: AlphaScreen assay was used to screen additional kinases. The assay is similarly dependent on the phosphorylation of a peptide substrate. In this assay, an antibody that recognizes phosphorylated substrate is bound to an acceptor bead. The peptide substrate is attached to biotin, which binds to a donor head that contains streptavidin. Thus phosphorylated substrate is bound by antibody and streptavidin, bringing the donor and acceptor heads into close proximity when kinase is not inhibited. The donor produces singlet oxygen which results in emission from the acceptor when they are in close proximity. Conversely, when kinase is inhibited, the donor and acceptor beads are not associated and the emission from the acceptor is reduced.
# AlphaScreen assays were done using compounds dissolved in DMSO to a concentration of 20 mM. The compounds were diluted accordingly to the desired final concentrations in each sample well, using 1:3 serial dilution for a total of 8 concentration points.
# B-Raf = biological target: T4, B-Raf (Homo sapiens, UniProt P15056); assay: AlphaScreen kinase assay, B-Raf; details: read-out: IC50, activity toward kinase B-Raf
# T4 construct: purchased Upstate Biotechnology
# T4 sequence (P15056 whole entry): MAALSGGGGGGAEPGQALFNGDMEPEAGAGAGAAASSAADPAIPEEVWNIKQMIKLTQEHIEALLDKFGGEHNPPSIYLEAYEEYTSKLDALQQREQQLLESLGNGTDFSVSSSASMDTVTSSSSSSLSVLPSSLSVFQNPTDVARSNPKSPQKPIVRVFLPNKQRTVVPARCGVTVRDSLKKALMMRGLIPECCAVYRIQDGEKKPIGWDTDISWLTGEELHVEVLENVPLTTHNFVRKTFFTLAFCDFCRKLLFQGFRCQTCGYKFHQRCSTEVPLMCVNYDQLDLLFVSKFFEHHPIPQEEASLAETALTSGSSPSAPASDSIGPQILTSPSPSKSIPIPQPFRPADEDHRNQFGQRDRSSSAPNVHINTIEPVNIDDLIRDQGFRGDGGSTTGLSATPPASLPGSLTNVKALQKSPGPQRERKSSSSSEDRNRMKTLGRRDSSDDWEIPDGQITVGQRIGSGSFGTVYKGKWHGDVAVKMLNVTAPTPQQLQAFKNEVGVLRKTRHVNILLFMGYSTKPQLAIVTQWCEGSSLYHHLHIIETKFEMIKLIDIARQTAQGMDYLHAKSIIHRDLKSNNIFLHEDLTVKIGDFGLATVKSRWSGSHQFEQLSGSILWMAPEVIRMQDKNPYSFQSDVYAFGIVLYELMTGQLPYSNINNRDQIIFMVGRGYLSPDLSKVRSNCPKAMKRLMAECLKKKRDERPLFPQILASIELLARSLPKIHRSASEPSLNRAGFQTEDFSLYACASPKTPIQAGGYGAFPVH
# Fms = biological target: T5, Fms (Homo sapiens, UniProt P07333); assay: AlphaScreen kinase assay, Fms; details: read-out: IC50, activity toward kinase Fms
# T5 construct: purchased Upstate Biotechnology
# T5 sequence (P07333 20-972): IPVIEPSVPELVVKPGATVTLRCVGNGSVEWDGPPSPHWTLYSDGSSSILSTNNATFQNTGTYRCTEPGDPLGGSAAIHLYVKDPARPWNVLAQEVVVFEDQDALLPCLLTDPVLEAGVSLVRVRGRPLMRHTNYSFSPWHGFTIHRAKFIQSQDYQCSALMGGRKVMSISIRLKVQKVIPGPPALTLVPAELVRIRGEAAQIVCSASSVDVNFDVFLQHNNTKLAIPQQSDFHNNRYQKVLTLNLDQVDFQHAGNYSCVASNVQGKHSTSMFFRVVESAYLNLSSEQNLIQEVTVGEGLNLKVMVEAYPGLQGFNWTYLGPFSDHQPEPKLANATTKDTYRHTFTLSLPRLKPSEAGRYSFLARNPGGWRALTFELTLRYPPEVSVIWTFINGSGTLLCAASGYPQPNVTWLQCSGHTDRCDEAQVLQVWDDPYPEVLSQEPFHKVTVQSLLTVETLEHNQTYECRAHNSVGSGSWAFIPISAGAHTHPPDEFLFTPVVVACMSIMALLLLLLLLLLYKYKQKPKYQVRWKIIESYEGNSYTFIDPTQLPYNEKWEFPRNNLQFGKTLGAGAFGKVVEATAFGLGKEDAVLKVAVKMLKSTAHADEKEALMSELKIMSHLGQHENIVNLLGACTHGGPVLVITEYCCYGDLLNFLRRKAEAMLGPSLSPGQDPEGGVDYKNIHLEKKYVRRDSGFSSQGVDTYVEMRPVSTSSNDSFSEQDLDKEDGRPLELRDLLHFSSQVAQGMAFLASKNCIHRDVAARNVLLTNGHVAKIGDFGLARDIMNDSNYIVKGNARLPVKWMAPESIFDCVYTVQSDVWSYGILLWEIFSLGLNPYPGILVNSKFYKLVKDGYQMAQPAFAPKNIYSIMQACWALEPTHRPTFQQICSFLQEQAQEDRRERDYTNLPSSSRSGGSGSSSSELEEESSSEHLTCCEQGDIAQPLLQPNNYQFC
# Jnk3 = biological target: T6, Jnk3 (Homo sapiens, UniProt P53779); assay: AlphaScreen kinase assay, Jnk3; details: read-out: IC50, activity toward kinase Jnk3
# T6 construct: purchased Upstate Biotechnology
# T6 sequence (P53779 whole entry): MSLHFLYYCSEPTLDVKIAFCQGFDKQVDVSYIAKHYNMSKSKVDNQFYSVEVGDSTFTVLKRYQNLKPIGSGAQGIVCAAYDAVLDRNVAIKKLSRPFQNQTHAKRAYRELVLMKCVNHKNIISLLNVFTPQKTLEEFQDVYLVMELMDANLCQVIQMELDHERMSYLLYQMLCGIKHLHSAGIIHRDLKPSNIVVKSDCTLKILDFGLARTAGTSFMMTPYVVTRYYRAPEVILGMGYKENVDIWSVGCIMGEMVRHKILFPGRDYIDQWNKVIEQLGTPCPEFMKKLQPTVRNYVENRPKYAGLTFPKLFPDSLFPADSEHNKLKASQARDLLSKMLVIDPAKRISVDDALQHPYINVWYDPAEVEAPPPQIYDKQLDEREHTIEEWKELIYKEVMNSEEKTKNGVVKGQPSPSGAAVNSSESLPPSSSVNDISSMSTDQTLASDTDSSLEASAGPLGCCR
# B-Raf V600E = biological target: T7, B-Raf V600E (Homo sapiens, UniProt P15056, V600E); assay: AlphaScreen kinase assay, B-Raf V600E; details: read-out: IC50, activity toward kinase B-Raf V600E
# T7 construct: P4254. pFastBacBD-CDC37 BRAF D437-K722-X, V600E; His6 with pFastBac HT leader (TEV site) (N); made in house; host or cells: Sf9 (baculovirus; chaperone CDC37 co-expressed)
# T7 sequence (P15056 with tags, fused parts or gaps V600E): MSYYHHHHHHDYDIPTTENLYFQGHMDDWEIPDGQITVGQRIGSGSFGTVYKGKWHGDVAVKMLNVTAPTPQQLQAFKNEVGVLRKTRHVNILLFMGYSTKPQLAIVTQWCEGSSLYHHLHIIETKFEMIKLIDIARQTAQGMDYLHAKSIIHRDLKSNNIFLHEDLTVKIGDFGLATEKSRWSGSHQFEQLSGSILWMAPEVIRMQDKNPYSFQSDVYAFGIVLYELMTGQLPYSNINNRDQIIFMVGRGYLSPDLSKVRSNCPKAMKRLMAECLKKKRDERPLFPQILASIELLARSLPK
# Jnk1 = biological target: T8, Jnk1 (Homo sapiens, UniProt P45983); assay: AlphaScreen kinase assay, Jnk1; details: read-out: IC50, activity toward kinase Jnk1
# T8 construct: purchased Upstate Biotechnology
# T8 sequence (P45983 whole entry): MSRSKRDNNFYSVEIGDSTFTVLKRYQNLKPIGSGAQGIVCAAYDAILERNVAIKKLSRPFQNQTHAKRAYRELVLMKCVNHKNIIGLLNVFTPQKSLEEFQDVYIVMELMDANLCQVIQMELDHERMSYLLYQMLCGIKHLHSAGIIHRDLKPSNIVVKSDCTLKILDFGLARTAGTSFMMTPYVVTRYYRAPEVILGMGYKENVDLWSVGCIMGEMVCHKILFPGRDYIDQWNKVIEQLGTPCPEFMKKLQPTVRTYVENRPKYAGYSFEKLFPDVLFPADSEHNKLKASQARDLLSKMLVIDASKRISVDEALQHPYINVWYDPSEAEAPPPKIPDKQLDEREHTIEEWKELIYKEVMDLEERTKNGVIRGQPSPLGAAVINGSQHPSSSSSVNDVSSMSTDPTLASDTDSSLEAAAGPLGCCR
# Kit = biological target: T9, Kit (Homo sapiens, UniProt P10721); assay: AlphaScreen kinase assay, Kit; details: read-out: IC50, activity toward kinase Kit
# T9 construct: P1332.N6 BI PTP KIT M552-K948-X COD; His6 (N); made in house; host or cells: E. coli (PTP1B co-expressed)
# T9 sequence (P10721 with tags, fused parts or gaps): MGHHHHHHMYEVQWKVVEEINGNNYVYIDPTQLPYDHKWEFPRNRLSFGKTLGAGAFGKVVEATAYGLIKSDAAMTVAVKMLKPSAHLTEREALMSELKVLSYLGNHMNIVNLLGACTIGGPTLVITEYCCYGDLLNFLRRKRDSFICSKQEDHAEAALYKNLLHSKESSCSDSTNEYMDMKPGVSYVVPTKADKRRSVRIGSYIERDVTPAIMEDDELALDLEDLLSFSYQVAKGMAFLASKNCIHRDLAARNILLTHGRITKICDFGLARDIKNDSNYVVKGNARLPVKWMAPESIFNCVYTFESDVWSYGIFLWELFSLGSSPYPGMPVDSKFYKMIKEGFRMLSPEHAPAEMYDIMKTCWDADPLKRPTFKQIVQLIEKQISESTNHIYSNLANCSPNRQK
IC50 (FGFR1) [µM],IC50 (Flt1) [µM],IC50 (Jnk2) [µM],IC50 (B-Raf) [µM],IC50 (Fms) [µM],IC50 (Jnk3) [µM],IC50 (B-Raf V600E) [µM],IC50 (Jnk1) [µM],IC50 (Kit) [µM],Compound
≤ 10,≤ 10,≤ 10,≤ 10,≤ 10,≤ 10,≤ 10,≤ 10,–,"CCCCNC(=O)Nc1ccc(F)c(C(=O)c2c[nH]c3ncc(-c4cccc(C(N)=O)c4)cc23)c1 [Compound P-1621, 3-{3-[5-(3-Butyl-ureido)-2-fluoro-benzoyl]-1H-pyrrolo[2,3-b]pyridin-5-yl}-benzamide]"
–,–,≤ 10,≤ 10,≤ 10,≤ 10,≤ 10,≤ 10,–,"Cc1ccccc1NC(=O)Nc1cccc(C(=O)c2c[nH]c3ncc(-c4cccnc4)cc23)c1 [Compound P-1759, 1-[3-(5-Pyridin-3-yl-1H-pyrrolo[2,3-b]pyridine-3-carbonyl)-phenyl]-3-o-tolyl-urea]"
–,–,≤ 10,≤ 10,≤ 10,≤ 10,≤ 10,≤ 10,–,"O=C(Nc1ccc(Cl)cc1)Nc1cccc(C(=O)c2c[nH]c3ncc(-c4cccnc4)cc23)c1 [Compound P-1750, 1-(4-Chloro-phenyl)-3-[3-(5-pyridin-3-yl-1H-pyrrolo[2,3-b]pyridine-3-carbonyl)-phenyl]-urea]"
–,–,≤ 10,≤ 10,≤ 10,≤ 10,≤ 10,≤ 10,≤ 10,"Cc1noc(NC(=O)Nc2cccc(C(=O)c3c[nH]c4ncc(Cl)cc34)c2)c1C [Compound P-1776, 1-[3-(5-Chloro-1H-pyrrolo[2,3-b]pyridine-3-carbonyl)-phenyl]-3-(3,4-dimethyl-isoxazol-5-yl)-urea]"
–,–,≤ 10,≤ 10,≤ 10,≤ 10,≤ 10,≤ 10,–,CCCS(=O)(=O)Nc1ccc(F)c(C(=O)c2c[nH]c3ncc(-c4ccc(C(=O)N(C)C)c(C)c4)cc23)c1F [Compound P-2007]
–,≤ 10,≤ 10,≤ 10,≤ 10,≤ 10,≤ 10,≤ 10,≤ 10,"COCCNC(=O)Nc1cccc(C(=O)c2c[nH]c3ncc(-c4cccnc4)cc23)c1 [Compound P-1566, 1-(2-Methoxy-ethyl)-3-[3-(5-pyridin-3-yl-1H-pyrrolo[2,3-b]pyridine-3-carbonyl)-phenyl]-urea]"
–,–,≤ 10,≤ 10,≤ 10,≤ 10,≤ 10,≤ 10,≤ 10,Cc1noc(NC(=O)Nc2cccc(C(=O)c3c[nH]c4ncccc34)c2)c1C [Compound P-1767]
–,–,≤ 10,≤ 10,≤ 10,≤ 10,≤ 10,≤ 10,–,"COc1cccc(NC(=O)Nc2cccc(C(=O)c3c[nH]c4ncc(-c5cccnc5)cc34)c2)c1 [Compound P-1749, 1-(3-Methoxy-phenyl)-3-[3-(5-pyridin-3-yl-1H-pyrrolo[2,3-b]pyridine-3-carbonyl)-phenyl]-urea]"
≤ 10,≤ 10,≤ 10,≤ 10,≤ 10,≤ 10,≤ 10,≤ 10,–,"NC(=O)Nc1ccc(F)c(C(=O)c2c[nH]c3ncc(-c4ccccc4)cc23)c1 [Compound P-1589, [4-Fluoro-3-(5-phenyl-1H-pyrrolo[2,3-b]pyridine-3-carbonyl)-phenyl]-urea]"
–,–,≤ 10,≤ 10,≤ 10,≤ 10,≤ 10,≤ 10,–,"Cc1cc(NC(=O)Nc2cccc(C(=O)c3c[nH]c4ncccc34)c2)on1 [Compound P-1765, 1-(3-Methyl-isoxazol-5-yl)-3-[3-(1H-pyrrolo[2,3-b]pyridine-3-carbonyl)-phenyl]-urea]"
–,–,≤ 10,≤ 10,≤ 10,≤ 10,≤ 10,≤ 10,–,"Cc1ccc(NC(=O)Nc2cccc(C(=O)c3c[nH]c4ncc(-c5cccnc5)cc34)c2)cc1 [Compound P-1756, 1-[3-(5-Pyridin-3-yl-1H-pyrrolo[2,3-b]pyridine-3-carbonyl)-phenyl]-3-p-tolyl-urea]"
–,–,≤ 10,≤ 10,≤ 10,≤ 10,≤ 10,≤ 10,–,"CCCCCNC(=O)n1ccc2c(C(=O)c3c[nH]c4ncc(-c5cccnc5)cc34)cccc21 [Compound P-1702, 4-(5-Pyridin-3-yl-1H-pyrrolo[2,3-b]pyridine-3-carbonyl)-indole-1-carboxylic acid pentylamide]"
–,≤ 10,≤ 10,≤ 10,≤ 10,≤ 10,≤ 10,≤ 10,–,"NC(=O)Nc1ccc(F)c(C(=O)c2c[nH]c3ncc(Br)cc23)c1 [Compound P-1570, [3-(5-Bromo-1H-pyrrolo[2,3-b]pyridine-3-carbonyl)-4-fluoro-phenyl]-urea]"
–,–,≤ 10,≤ 10,≤ 10,≤ 10,≤ 10,≤ 10,–,"O=C(Nc1cccc(C(=O)c2c[nH]c3ncc(-c4cccnc4)cc23)c1)Nc1ccc(F)c(F)c1 [Compound P-1724, 1-(3,4-Difluoro-phenyl)-3-[3-(5-pyridin-3-yl-1H-pyrrolo[2,3-b]pyridine-3-carbonyl)-phenyl]-urea]"
–,–,≤ 10,≤ 10,≤ 10,≤ 10,≤ 10,≤ 10,≤ 10,"Cc1ccccc1NC(=O)Nc1cccc(C(=O)c2c[nH]c3ncccc23)c1 [Compound P-1720, 1-[3-(1H-Pyrrolo[2,3-b]pyridine-3-carbonyl)-phenyl]-3-o-tolyl-urea]"
–,–,≤ 10,≤ 10,≤ 10,≤ 10,≤ 10,≤ 10,–,"Cc1cccc(NC(=O)Nc2cccc(C(=O)c3c[nH]c4ncc(-c5cccnc5)cc34)c2)c1 [Compound P-1757, 1-[3-(5-Pyridin-3-yl-1H-pyrrolo[2,3-b]pyridine-3-carbonyl)-phenyl]-3-m-tolyl-urea]"
–,–,≤ 10,≤ 10,≤ 10,≤ 10,≤ 10,≤ 10,–,"CCCCNC(=O)Nc1cccc(C(=O)c2c[nH]c3ncc(-c4cccnc4)cc23)c1C [Compound P-1742, 1-Butyl-3-[2-methyl-3-(5-pyridin-3-yl-1H-pyrrolo[2,3-b]pyridine-3-carbonyl)-phenyl]-urea]"
–,–,≤ 10,≤ 10,≤ 10,≤ 10,≤ 10,≤ 10,–,"CCCCNC(=O)n1ccc2c(C(=O)c3c[nH]c4ncc(Br)cc34)cccc21 [Compound P-1687, 4-(5-Bromo-1H-pyrrolo[2,3-b]pyridine-3-carbonyl)-indole-1-carboxylic acid butylamide]"
–,–,≤ 10,≤ 10,≤ 10,≤ 10,≤ 10,≤ 10,–,"O=C(Nc1cccc(C(=O)c2c[nH]c3ncccc23)c1)Nc1ccon1 [Compound P-1764, 1-Isoxazol-3-yl-3-[3-(1H-pyrrolo[2,3-b]pyridine-3-carbonyl)-phenyl]-urea]"
